According to patent US5348968A, “Indole, indazole and benzisoxazole compounds” (Adir et Compagnie, priority 1993, dated 1994):
pEC50: −log10 of the molar value. Structures can show the parent of a compound that is named as a salt.

Columns and labels:
5-HT1 receptor [1] = molecular target: T1, 5-HT1 receptor (Canis lupus familiaris, UniProt P79250); experiment: Contraction of the vena saphena isolated from dogs; parameters: species or system dog; conditions: % of maximum effect induced by KCl, after phenoxybenzamine, cumulative doses 10^-9 to 10^-4 M, read-out: 50% effective concentration (EC50)
T1 construct: The venae saphenae are rapidly removed and cut into rings; from tissue; host or cells: dog saphenous vein rings
T1 sequence (P79250 whole entry): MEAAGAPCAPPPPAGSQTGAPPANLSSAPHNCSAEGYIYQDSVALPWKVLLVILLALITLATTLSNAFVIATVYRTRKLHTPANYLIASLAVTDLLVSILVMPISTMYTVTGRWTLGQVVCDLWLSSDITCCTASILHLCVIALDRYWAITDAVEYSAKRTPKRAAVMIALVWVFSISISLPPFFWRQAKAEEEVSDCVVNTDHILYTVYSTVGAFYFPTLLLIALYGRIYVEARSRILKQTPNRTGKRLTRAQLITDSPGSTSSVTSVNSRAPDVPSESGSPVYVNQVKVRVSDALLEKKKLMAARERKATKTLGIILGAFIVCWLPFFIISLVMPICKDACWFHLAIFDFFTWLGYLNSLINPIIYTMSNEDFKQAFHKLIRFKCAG
Protocol: (§1) Contraction of the vena saphena
(§2) Experiments are carried out on venae saphenae of dogs (10-25kg) or rabbits (2-3 kg) anesthetized with pentobarbital (30 mg/kg i.v.). The venae saphenae are rapidly removed and cut into rings. These rings are mounted between two hooks in tanks thermostatically controlled at 37° C. containing physiological solution (composition in mM: NaCl118.3; KCl 4.7; CaCl2 2.5; MgSO4 1.2; KH2 PO4 1.2; NaHCO3 25.0; Ca-EDTA 0.026 and glucose 11.1). A mixture of 95% O2 /5% CO2 is bubbled through the physiological solution. The lower hook constitutes the fixed point whereas the upper hook is connected to an isometric force sensor. The tissues are put under a base tension of 1.5 grams (dogs) and 1 gram (rabbits). The pharmacological substances studied are prepared immediately before use; they are dissolved in water or in dimethyl sulfoxide.
(§3) After mounting, the preparations are left standing for 60 minutes, rinsings being carried out every 30 minutes. The organ is then brought into contact with phenoxybenzamine (5×10^-8 M) for 20 minutes. This agent is removed by several successive washings over 45 minutes. After readjusting the base tension, a contraction is caused by KCl (100 mM).

5-HT1 receptor [2] = experiment: Contraction of the vena saphena isolated from rabbits; parameters: species or system rabbit; conditions: % of maximum effect induced by KCl, after phenoxybenzamine, cumulative doses 10^-9 to 10^-4 M, read-out: 50% effective concentration (EC50)
Protocol: as §1, §2, §3

CCCN1CCC(Cc2c[nH]c3ccc(C(N)=O)cc23)C1 (centres unmarked) [Example 17, 3-[(1-Propylpyrrolidin-3-yl)methyl]-5-aminocarbonylindole, oxalate]
pEC50 (5-HT1 receptor [1]): 6.47
pEC50 (5-HT1 receptor [2]): 6.39
